Assay results published in patent publication US12539292B2, “BRM targeting compounds and associated methods of use” (Arvinas Operations, Inc., priority 2018, dated 2026).
Read-outs that look alike come from different tables or passages of the source.

Target: T1, BRM (Homo sapiens, UniProt P51531)
T1 construct: In-Cell Western Screen of BRM Degradation in SW1573 Cells; endogenous in cells; host or cells: SW1573
Assay: In-cell Western screen of BRM degradation in SW1573 cells (Dmax and DC50)
Assay type: cell-based
Outline: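 BRM levels were read by LI-COR in-cell Western after two-channel (800/680 nm) immunostaining of fixed, Triton-permeabilised SW1573 cells.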

[1] = BRM degradation, SW1573 cells, read-out: DC50
[2] = target protein degradation, read-out: BRM DC50
[3] = BRM degradation, SW1573 cells, when tested at the top concentration of between 0.3 and 10 μM, read-out: Dmax (%) (% degraded)

T1 sequence (P51531 whole entry): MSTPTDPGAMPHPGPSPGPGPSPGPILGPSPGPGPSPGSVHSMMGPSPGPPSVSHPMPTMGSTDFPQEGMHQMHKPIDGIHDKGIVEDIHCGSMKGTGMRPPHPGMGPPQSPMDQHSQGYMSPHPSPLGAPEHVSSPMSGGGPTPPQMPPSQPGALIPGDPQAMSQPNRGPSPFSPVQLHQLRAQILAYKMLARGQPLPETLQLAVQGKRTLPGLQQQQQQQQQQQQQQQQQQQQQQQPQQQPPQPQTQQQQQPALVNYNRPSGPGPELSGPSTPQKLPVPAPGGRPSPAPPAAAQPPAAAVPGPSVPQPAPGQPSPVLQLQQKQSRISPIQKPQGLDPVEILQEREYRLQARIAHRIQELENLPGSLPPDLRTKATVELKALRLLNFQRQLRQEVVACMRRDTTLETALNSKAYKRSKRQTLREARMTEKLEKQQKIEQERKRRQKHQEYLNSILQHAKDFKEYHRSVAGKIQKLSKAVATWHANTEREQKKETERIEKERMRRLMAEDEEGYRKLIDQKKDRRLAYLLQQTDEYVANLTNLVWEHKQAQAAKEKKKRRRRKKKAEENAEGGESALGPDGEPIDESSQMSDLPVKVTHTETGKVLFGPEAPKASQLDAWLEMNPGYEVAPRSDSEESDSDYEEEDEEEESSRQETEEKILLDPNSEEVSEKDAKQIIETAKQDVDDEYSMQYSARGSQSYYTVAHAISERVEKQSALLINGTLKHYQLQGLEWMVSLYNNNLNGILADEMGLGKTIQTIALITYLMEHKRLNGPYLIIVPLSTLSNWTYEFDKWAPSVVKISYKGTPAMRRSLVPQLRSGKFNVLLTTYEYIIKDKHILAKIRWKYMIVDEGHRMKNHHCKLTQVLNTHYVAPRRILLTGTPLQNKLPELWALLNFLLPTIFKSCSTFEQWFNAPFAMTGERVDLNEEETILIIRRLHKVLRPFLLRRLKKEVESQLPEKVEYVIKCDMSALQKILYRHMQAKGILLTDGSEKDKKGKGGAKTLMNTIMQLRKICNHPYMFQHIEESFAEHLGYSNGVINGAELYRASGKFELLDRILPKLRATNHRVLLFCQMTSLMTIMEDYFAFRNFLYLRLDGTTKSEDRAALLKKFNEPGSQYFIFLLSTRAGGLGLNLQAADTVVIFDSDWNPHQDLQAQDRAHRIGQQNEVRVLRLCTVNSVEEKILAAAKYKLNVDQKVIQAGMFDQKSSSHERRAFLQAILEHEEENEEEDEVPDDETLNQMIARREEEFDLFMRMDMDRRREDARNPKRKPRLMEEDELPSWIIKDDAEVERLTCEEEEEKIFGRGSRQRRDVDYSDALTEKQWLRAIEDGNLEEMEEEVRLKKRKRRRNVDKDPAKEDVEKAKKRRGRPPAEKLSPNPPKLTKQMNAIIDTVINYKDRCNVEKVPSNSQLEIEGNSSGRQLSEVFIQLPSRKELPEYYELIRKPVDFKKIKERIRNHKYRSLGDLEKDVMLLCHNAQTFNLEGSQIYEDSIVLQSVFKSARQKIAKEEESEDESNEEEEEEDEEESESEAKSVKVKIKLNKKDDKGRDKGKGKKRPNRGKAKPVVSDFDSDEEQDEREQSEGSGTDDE

| Compound | DC50 [1] [nM] | Dmax [3] [%] | other results |
| --- | --- | --- | --- |
| Cc1ncsc1-c1ccc([C@H](C)NC(=O)[C@@H]2C[C@@H](O)CN2C(=O)[C@@H](c2cc(N3CCC(N4CCC(O[C@H]5C[C@H](Oc6cc(N7C8CCC7CN(c7cc(-c9ccccc9O)nnc7N)C8)ccn6)C5)CC4)CC3)no2)C(C)C)cc1 [compound 685, (2S,4R)-1-((2R)-2-(3-(4-((1r,3R)-3-((4-(3-(3-amino-6-(2-hydroxyphenyl)pyridazin-4-yl)-3,8-diazabicyclo[3.2.1]octan-8-yl)pyridin-2-yl)oxy)cyclobutoxy)-[1,4'-bipiperidin]-1'-yl)isoxazol-5-yl)-3-methylbutanoyl)-4-hydroxy-N-((S)-1-(4-(4-methylthiazol-5-yl)phenyl)ethyl)pyrrolidine-2-carboxamide] | < 2.5 | – | Dmax (BRM degradation, SW1573 cells, read-out: Dmax (% degraded)): > 75% |
| Cc1ncsc1-c1ccc([C@H](C)NC(=O)[C@@H]2C[C@@H](O)CN2C(=O)[C@@H](c2cc(OCCC3CCN(C(=O)[C@H]4C[C@@H](CN5CCC([C@@H](C)n6cc(-c7cc(-c8ccccc8O)nnc7N)cn6)CC5)C4)CC3)no2)C(C)C)cc1 [compound 452, (2S,4R)-1-((R)-2-(3-(2-(1-((1S,3S)-3-((4-((R)-1-(4-(3-amino-6-(2-hydroxyphenyl)pyridazin-4-yl)-1H-pyrazol-1-yl)ethyl)piperidin-1-yl)methyl)cyclobutane-1-carbonyl)piperidin-4-yl)ethoxy)isoxazol-5-yl)-3-methylbutanoyl)-4-hydroxy-N-((S)-1-(4-(4-methylthiazol-5-yl)phenyl)ethyl)pyrrolidine-2-carboxamide] | – | – | Dmax (SW1573, % degraded, when tested at the top concentration of between 0.3 and 10 μM, read-out: BRM Dmax (%)): > 75%; DC50 [2]: 10 to 30 nM |
| CC(C)[C@H](C(=O)N1C[C@H](O)C[C@H]1C(=O)N[C@@H](C)c1ccc(C(F)(F)F)cc1)c1cc(OCCN2CCC(O[C@H]3C[C@H](Oc4cc(N5C6CCC5CN(c5cc(-c7ccccc7O)nnc5N)C6)ccn4)C3)CC2)no1 [compound 247, (2S,4R)-1-((2S)-2-(3-(2-(4-((1r,3S)-3-((4-(3-(3-amino-6-(2-hydroxyphenyl)pyridazin-4-yl)-3,8-diazabicyclo[3.2.1]octan-8-yl)pyridin-2-yl)oxy)cyclobutoxy)piperidin-1-yl)ethoxy)isoxazol-5-yl)-3-methylbutanoyl)-4-hydroxy-N-((S)-1-(4-(trifluoromethyl)phenyl)ethyl) pyrrolidine-2-carboxamide] | > 30 | – | – |
| Cc1ncsc1-c1ccc([C@H](C)NC(=O)[C@@H]2C[C@@H](O)CN2C(=O)[C@H](c2cc(OCC[C@H]3CC[C@H](O[C@H]4C[C@H](Oc5cc(N6C7CCC6CN(c6cc(-c8ccccc8O)nnc6N)C7)ccn5)C4)CC3)no2)C(C)C)cc1 [compound 487, (2S,4R)-1-((2S)-2-(3-(2-((1R,4S)-4-((1r,3S)-3-((4-(3-(3-amino-6-(2-hydroxyphenyl)pyridazin-4-yl)-3,8-diazabicyclo[3.2.1]octan-8-yl)pyridin-2-yl)oxy)cyclobutoxy)cyclohexyl)ethoxy)isoxazol-5-yl)-3-methylbutanoyl)-4-hydroxy-N-((S)-1-(4-(4-methylthiazol-5-yl)phenyl)ethyl)pyrrolidine-2-carboxamide] | – | – | DC50 [2]: > 30 nM |
| Cc1nccn1-c1ccc([C@H](C)NC(=O)[C@@H]2C[C@@H](O)CN2C(=O)[C@H](c2cc(OCCN3CCN(CCOc4cc(N5C6CCC5CN(c5cc(-c7ccccc7O)nnc5N)C6)ccn4)CC3)no2)C(C)C)cc1 [compound 75, (2S,4R)-1-((2S)-2-(3-(2-(4-(2-((4-(3-(3-amino-6-(2-hydroxyphenyl)pyridazin-4-yl)-3,8-diazabicyclo[3.2.1]octan-8-yl)pyridin-2-yl)oxy)ethyl)piperazin-1-yl)ethoxy)isoxazol-5-yl)-3-methylbutanoyl)-4-hydroxy-N-((S)-1-(4-(2-methyl-1H-imidazol-1-yl)phenyl)ethyl)pyrrolidine-2-carboxamide] | 10 to 30 | > 75 | – |
| Cc1ncsc1-c1ccc([C@@H](NC(=O)[C@@H]2C[C@@H](O)CN2C(=O)[C@@H](c2cc(OCCN3CCN(CCOc4cc(N5C6CCC5CN(c5cc(-c7ccccc7O)nnc5N)C6)ccn4)CC3)no2)C(C)C)C(F)F)cc1 [compound 102, (2S,4R)-1-((2R)-2-(3-(2-(4-(2-((4-(3-(3-amino-6-(2-hydroxyphenyl)pyridazin-4-yl)-3,8-diazabicyclo[3.2.1]octan-8-yl)pyridin-2-yl)oxy)ethyl)piperazin-1-yl)ethoxy)isoxazol-5-yl)-3-methylbutanoyl)-N-((R)-2,2-difluoro-1-(4-(4-methylthiazol-5-yl)phenyl)ethyl)-4-hydroxypyrrolidine-2-carboxamide] | < 2.5 | > 75 | – |
| Cc1cc([C@H](C(=O)N2C[C@H](O)C[C@H]2C(=O)N[C@H](COCCCCCc2cc(-c3ccccc3O)nnc2N)c2ccc(-c3scnc3C)cc2)C(C)C)on1 [compound 528, (2S,4R)-N-((S)-2-((5-(3-amino-6-(2-hydroxyphenyl)pyridazin-4-yl)pentyl)oxy)-1-(4-(4-methylthiazol-5-yl)phenyl)ethyl)-4-hydroxy-1-((R)-3-methyl-2-(3-methylisoxazol-5-yl)butanoyl)pyrrolidine-2-carboxamide] | – | – | DC50 (BRM degradation, read-out: BRM DC50): > 30 nM |
| Cc1ncsc1-c1ccc([C@H](C)NC(=O)[C@@H]2C[C@@H](O)CN2C(=O)[C@H](c2cc(OCC[C@@H]3CCN(C[C@H]4C[C@H](Oc5cc(N6C7CCC6CN(c6cc(-c8ccccc8O)nnc6N)C7)ccn5)C4)C[C@@H]3C)no2)C(C)C)cc1 (racemic) [compound 543, (2S,4R)-1-((2S)-2-(3-(2-((3R,4S)-1-(((1r,3R)-3-((4-(3-(3-amino-6-(2-hydroxyphenyl)pyridazin-4-yl)-3,8-diazabicyclo[3.2.1]octan-8-yl)pyridin-2-yl)oxy)cyclobutyl)methyl)-3-methylpiperidin-4-yl)ethoxy)isoxazol-5-yl)-3-methylbutanoyl)-4-hydroxy-N-((S)-1-(4-(4-methylthiazol-5-yl)phenyl)ethyl)pyrrolidine-2-carboxamide] | – | – | DC50 (BRM degradation, SW1573 cells, Table 2D, read-out: *DC50): > 30 nM |
| Cc1ncsc1-c1ccc([C@@H](NC(=O)[C@@H]2C[C@@H](O)CN2C(=O)[C@@H](c2cc(OCCN3CCN(CCOc4cc(N5C6CCC5CN(c5cc(-c7ccccc7O)nnc5N)C6)ccn4)CC3)no2)C(C)C)C(=O)N(C)C2CCC2)cc1 [compound 246, (2S,4R)-1-((2R)-2-(3-(2-(4-(2-((4-(3-(3-amino-6-(2-hydroxyphenyl)pyridazin-4-yl)-3,8-diazabicyclo[3.2.1]octan-8-yl)pyridin-2-yl)oxy)ethyl)piperazin-1-yl)ethoxy)isoxazol-5-yl)-3-methylbutanoyl)-N-((R)-2-(cyclobutyl(methyl)amino)-1-(4-(4-methylthiazol-5-yl)phenyl)-2-oxoethyl)-4-hydroxypyrrolidine-2-carboxamide] | < 2.5 | – | Dmax (BRM degradation, SW1573 cells, tested at the top concentration of between 0.3 and 10 μM, read-out: Dmax (%) (% degraded)): > 75% |
| Cc1ncsc1-c1ccc([C@H](C)NC(=O)[C@@H]2C[C@@H](O)CN2C(=O)[C@@H](NC(=O)Cc2ccc(N3CCN(CCOCCCc4cc(N5C6CCC5CN(c5cc(-c7ccccc7O)nnc5N)C6)ccn4)CC3)nc2)C(C)(C)C)cc1 [compound 50, (2S,4R)-1-[(2S)-2-[2-[6-(4-[2-[3-(4-[3-[3-amino-6-(2-hydroxyphenyl)pyridazin-4-yl]-3,8-diazabicyclo[3.2.1]octan-8-yl]pyridin-2-yl)propoxy]ethyl]piperazin-1-yl)pyridin-3-yl]acetamido]-3,3-dimethylbutanoyl]-4-hydroxy-N-[(1S)-1-[4-(4-methyl-1,3-thiazol-5-yl)phenyl]ethyl]pyrrolidine-2-carboxamide] | 10 to 30 | > 75 | – |
